Measurements: US20180319810A1, “SUBSTITUTED BRIDGED UREA ANALOGS AS SIRTUIN MODULATORS” (GlaxoSmithKline Intellectual Property (No.2) Limited, priority 2014, published 2018)

Target: T1, SIRT1 (Homo sapiens, UniProt Q96EB6)
T1 sequence (Q96EB6 1-747): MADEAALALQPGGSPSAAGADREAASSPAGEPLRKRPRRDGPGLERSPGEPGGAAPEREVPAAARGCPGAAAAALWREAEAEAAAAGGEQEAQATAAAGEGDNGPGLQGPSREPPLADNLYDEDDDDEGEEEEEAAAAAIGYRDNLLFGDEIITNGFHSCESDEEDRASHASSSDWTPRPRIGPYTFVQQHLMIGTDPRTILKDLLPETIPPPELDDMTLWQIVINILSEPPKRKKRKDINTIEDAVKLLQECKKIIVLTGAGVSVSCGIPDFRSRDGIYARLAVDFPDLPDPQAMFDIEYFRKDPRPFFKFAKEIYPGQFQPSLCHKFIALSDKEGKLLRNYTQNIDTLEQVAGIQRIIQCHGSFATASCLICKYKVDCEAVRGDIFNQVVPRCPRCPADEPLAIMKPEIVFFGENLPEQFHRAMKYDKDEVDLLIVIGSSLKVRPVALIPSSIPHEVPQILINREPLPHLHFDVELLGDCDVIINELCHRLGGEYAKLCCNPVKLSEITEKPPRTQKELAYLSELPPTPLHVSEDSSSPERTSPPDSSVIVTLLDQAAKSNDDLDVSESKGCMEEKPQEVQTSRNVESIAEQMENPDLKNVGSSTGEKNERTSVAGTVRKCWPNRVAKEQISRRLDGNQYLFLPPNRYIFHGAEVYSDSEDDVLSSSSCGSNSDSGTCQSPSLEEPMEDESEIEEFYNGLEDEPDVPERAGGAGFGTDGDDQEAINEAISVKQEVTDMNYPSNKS
Assay: Trp mass spectrometry assay of SIRT1 activation
Assay type: biochemical
Conditions: Trp peptide Ac-R-H-K-K(Ac)-W-NH2 0.5 μM, 120 μM βNAD+, 10 nM SIRT1, 25 min, 25° C.

| Structure (SMILES) | TRP Activity (EC1.5, concentration of compound required to increase SIRT1 activity by 50% over control) | TRP MAX RESP (percent maximum fold activation relative to control) |
| --- | --- | --- |
| Cc1nc(-c2cccc(C(F)(F)F)c2)nc2c1N1CC[C@@H](C1)N2C(=O)Nc1nccc(OC[C@H](O)CO)n1 [Example 56, (8S)—N-(4-((R)-2,3-dihydroxypropoxy)pyrimidin-2-yl)-4-methyl-2-(3-(trifluoromethyl)phenyl)-7,8-dihydro-5,8-methanopyrimido[4,5-b][1,4]diazepine-9(6H)-carboxamide] | B (EC1.5 1-25 μM) | A (Fold activation ≥150%) |
| Cc1nc(-c2cccc(C(F)(F)F)c2)nc2c1N1CC[C@@H](C1)N2C(=O)Nc1ccnc(OC[C@@H](O)CO)c1 [Example 57, (8S)—N-(2-((S)-2,3-dihydroxypropoxy)pyridin-4-yl)-4-methyl-2-(3-(trifluoromethyl)phenyl)-7,8-dihydro-5,8-methanopyrimido[4,5-b][1,4]diazepine-9(6H)-carboxamide] | B (EC1.5 1-25 μM) | A (Fold activation ≥150%) |
| Cc1ccc2c(NC(=O)N3c4nc(C(=O)N[C@H](C)C(F)(F)F)nc(C)c4N4CC[C@H]3C4)n[nH]c2n1 [Example 60, (8S)-4-methyl-N9-(6-methyl-1H-pyrazolo[3,4-b]pyridin-3-yl)-N2-((R)-1,1,1-trifluoropropan-2-yl)-7,8-dihydro-5,8-methanopyrimido[4,5-b][1,4]diazepine-2,9(6H)-dicarboxamide] | B (EC1.5 1-25 μM) | A (Fold activation ≥150%) |
| O=C(NCC(F)(F)F)c1ncc2c(n1)N(C(=O)Nc1ccccn1)[C@H]1CCCN2C1 [Example 62, (9S)—N10-(pyridin-2-yl)-N2-(2,2,2-trifluoroethyl)-8,9-dihydro-6H-5,9-methanopyrimido[4,5-b][1,4]diazocine-2,10(7H)-dicarboxamide] | A (EC1.5<1 μM) | A (Fold activation ≥150%) |
| Cc1ccc2c(NC(=O)N3c4nc(C(=O)NCC(F)(F)F)ncc4N4CCC[C@H]3C4)n[nH]c2n1 [Example 65, (9S)—N10-(6-methyl-1H-pyrazolo[3,4-b]pyridin-3-yl)-N2-(2,2,2-trifluoroethyl)-8,9-dihydro-6H-5,9-methanopyrimido[4,5-b][1,4]diazocine-2,10(7H)-dicarboxamide] | B (EC1.5 1-25 μM) | A (Fold activation ≥150%) |
| Cc1nc(C(=O)N[C@H](C)C(F)(F)F)nc2c1N1CCC[C@@H](C1)N2C(=O)Nc1cc(OC[C@H](O)CO)ccn1 [Example 67, (9S)—N10-(4-((R)-2,3-dihydroxypropoxy)pyridin-2-yl)-4-methyl-N2-((R)-1,1,1-trifluoropropan-2-yl)-8,9-dihydro-6H-5,9-methanopyrimido[4,5-b][1,4]diazocine-2,10(7H)-dicarboxamide] | A (EC1.5<1 μM) | A (Fold activation ≥150%) |
| Cc1ncc(-c2ccnc(NC(=O)N3c4nc(C(=O)N[C@H](C)C(F)(F)F)nc(C)c4N4CCC[C@H]3C4)c2)o1 [Example 71, (9S)-4-methyl-N10-(4-(2-methyloxazol-5-yl)pyridin-2-yl)-N2-((R)-1,1,1-trifluoropropan-2-yl)-8,9-dihydro-6H-5,9-methanopyrimido[4,5-b][1,4]diazocine-2,10(7H)-dicarboxamide] | A (EC1.5<1 μM) | A (Fold activation ≥150%) |
| Cc1ccc2c(NC(=O)N3c4nc(C(=O)N[C@H](C)C(F)(F)F)nc(C)c4N4CCC[C@H]3C4)n[nH]c2n1 [Example 73, (9S)-4-methyl-N10-(6-methyl-1H-pyrazolo[3,4-b]pyridin-3-yl)-N2-((R)-1,1,1-trifluoropropan-2-yl)-8,9-dihydro-6H-5,9-methanopyrimido[4,5-b][1,4]diazocine-2,10(7H)-dicarboxamide] | A (EC1.5<1 μM) | A (Fold activation ≥150%) |
| Cc1nc(C(=O)N[C@H](C)C(F)(F)F)nc2c1N1CCC[C@@H](C1)N2C(=O)Nc1ccc(OC[C@@H](O)CO)nn1 [Example 74, (9S)—N10-(6-((S)-2,3-dihydroxypropoxy)pyridazin-3-yl)-4-methyl-N2-((R)-1,1,1-trifluoropropan-2-yl)-8,9-dihydro-6H-5,9-methanopyrimido[4,5-b][1,4]diazocine-2,10(7H)-dicarboxamide] | B (EC1.5 1-25 μM) | A (Fold activation ≥150%) |

Continued, values first:

| TRP Activity (EC1.5, concentration of compound required to increase SIRT1 activity by 50% over control) | TRP MAX RESP (percent maximum fold activation relative to control) | Structure (SMILES) |
| --- | --- | --- |
| B (EC1.5 1-25 μM) | A (Fold activation ≥150%) | O=C(NCC(F)(F)F)c1ncc2c(n1)N(C(=O)Nc1ccccn1)[C@H]1CCN2C1 [Example 58, (8S)—N9-(pyridin-2-yl)-N2-(2,2,2-trifluoroethyl)-7,8-dihydro-5,8-methano pyrimido[4,5-b][1,4]diazepine-2,9(6H)-dicarboxamide] |
| A (EC1.5<1 μM) | A (Fold activation ≥150%) | C[C@@H](NC(=O)c1ncc2c(n1)N(C(=O)Nc1ccccn1)[C@H]1CCN2C1)C(F)(F)F [Example 59, (8S)—N9-(pyridin-2-yl)-N2-((R)-1,1,1-trifluoropropan-2-yl)-7,8-dihydro-5,8-methanopyrimido[4,5-b][1,4]diazepine-2,9(6H)-dicarboxamide] |
| B (EC1.5 1-25 μM) | A (Fold activation ≥150%) | Cc1ncc(-c2ccnc(NC(=O)N3c4nc(C(=O)NCC(F)(F)F)ncc4N4CC[C@H]3C4)c2)o1 [Example 61, (8S)—N9-(4-(2-methyloxazol-5-yl)-pyridin-2-yl)-N2-(2,2,2-trifluoroethyl)-7,8-dihydro-5,8-methanopyrimido-[4,5-b][1,4]-diazepine-2,9(6H)-dicarboxamide] |
| A (EC1.5<1 μM) | A (Fold activation ≥150%) | C[C@@H](NC(=O)c1ncc2c(n1)N(C(=O)Nc1ccccn1)[C@H]1CCCN2C1)C(F)(F)F [Example 63, (9S)—N10-(pyridin-2-yl)-N2-((R)-1,1,1-trifluoropropan-2-yl)-8,9-dihydro-6H-5,9-methanopyrimido[4,5-b][1,4]diazocine-2,10(7H)-dicarboxamide] |
| A (EC1.5<1 μM) | A (Fold activation ≥150%) | C[C@@H](NC(=O)c1ncc2c(n1)N(C(=O)Nc1cc(OC[C@H](O)CO)ccn1)[C@H]1CCCN2C1)C(F)(F)F [Example 64, (9S)—N10-(4-((R)-2,3-dihydroxypropoxy)pyridin-2-yl)-N2-((R)-1,1,1-trifluoropropan-2-yl)-8,9-dihydro-6H-5,9-methanopyrimido[4,5-b][1,4]diazocine-2,10(7H)-dicarboxamide] |
| B (EC1.5 1-25 μM) | A (Fold activation ≥150%) | C[C@@H](NC(=O)c1ncc2c(n1)N(C(=O)Nc1cnc(OC[C@H](O)CO)cn1)[C@H]1CCCN2C1)C(F)(F)F [Example 69] |
| A (EC1.5<1 μM) | A (Fold activation ≥150%) | Cc1ncc(-c2ccnc(NC(=O)N3c4nc(C(=O)N[C@H](C)C(F)(F)F)ncc4N4CCC[C@H]3C4)c2)o1 [Example 70, (9S)—N10-(4-(2-methyloxazol-5-yl)pyridin-2-yl)-N2-((R)-1,1,1-trifluoropropan-2-yl)-8,9-dihydro-6H-5,9-methanopyrimido[4,5-b][1,4]diazocine-2,10(7H)-dicarboxamide] |
| A (EC1.5<1 μM) | A (Fold activation ≥150%) | Cc1ccc2c(NC(=O)N3c4nc(C(=O)N[C@H](C)C(F)(F)F)ncc4N4CCC[C@H]3C4)n[nH]c2n1 [Example 72, (9S)—N10-(6-methyl-1H-pyrazolo[3,4-b]pyridin-3-yl)-N2-((R)-1,1,1-trifluoropropan-2-yl)-8,9-dihydro-6H-5,9-methanopyrimido[4,5-b][1,4]diazocine-2,10(7H)-dicarboxamide] |
